Source: patent US11485762B2, “Compositions and methods for inhibition of L-plastin activity in osteoclasts to reduce bone loss” (University of Maryland, Baltimore, priority 2017, dated 2022)
Entries after “also recorded” stand apart in the source; their conditions may differ.

How the values were obtained:
osteoclasts = assay: Podosome organization in osteoclasts (actin staining); assay type: cell-based, mouse; details: for formation of podosomes: sNT-LPL peptides; for actin modulation involved in podosome assembly/disassembly: TAT-fused LPL peptides
Description: Osteoclast precursors (10^5 cells/coverslips) were cultured on glass cover slips or dentine slices. Fluorescent labeling was done in osteoclasts transduced or untransduced with TAT-proteins. HA or TAT antibody was used to identify the transduced peptides of interest; rhodamine phalloidin was used to determine actin organization (Chellaiah et al., 2000, J. Cell Biol., 148: 665-678; Chellaiah et al., 2000, J. Biol. Chem., 275: 11993-12002). Immunostained and actin stained osteoclasts were photographed with a Bio-Rad confocal laser-scanning microscope. Images were stored in TIF image format and processed by Adobe Photoshop (Adobe Systems Inc., Mountain View. Calif.).
(§1) After cells were kept in the serum-free α-MEM medium for two hours, LPL peptides of interest were added to a final concentration of 100-150 nM to cells in serum-free media (Chellaiah et al, 2000, J. Biol. Chem., 275: 11993-12002). Osteoclasts transduced with peptides of interest and added with bone particles in the presence of TNF-α for 3-4 hours or 12-14 hours were used for lysate preparations. Cells plated on coverslips and treated with peptides were used for actin staining to detect podosomes. After transduction for 30 min., osteoclasts were re-plated on dentine slices with respective LPL peptide and TNF-α for 3-6 hours or 12-14 hours. These cells were used for Actin staining with rhodamine-phalloidin or immunostaining analyses (Chellaiah et al., 2000, J. Biol. Chem., 275: 11993-12002; Chellaiah et al., 2000, J. Cell. Biol., 148: 665-678; Chellaiah et al., 2003, J Biol Chem 278: 29086-29097).
Osteoclasts were fixed with 3% paraformaldehyde for 20 minutes and permeabilized with 0.1% Triton X-100 in PBS for 5 minutes. Subsequently, osteoclasts were stained with a primary (HA or integrin αv) and secondary antibody as described (Chellaiah et al., 2003, J Biol Chem 278: 29086-29097). Actin staining was done with rhodamine-phalloidin as described (Chellaiah et al., 2000, J. Biol. Chem., 275: 11993-12002; Chellaiah et al., 2000, J. Cell Biol., 148: 665-678). Cells were washed and mounted on a slide in a mounting solution (Vector Laboratories) and sealed with nail polish. Immunostained osteoclasts were photographed with a Bio-Rad and Nikon confocal microscope. Images were stored in TIF image format and processed by Adobe Photoshop (Adobe Systems Inc., Mountain View, Calif.).

[1] = test system: osteoclasts derived from RAW cells; assay: Podosome organization and migration in osteoclasts derived from RAW cells; assay type: cell-based; details: compared with P5
Description: C57/BL6 mice were used for osteoclast preparation as described previously (Chellaiah et al., 2000, J. Cell Biol., 148: 665.678; Chellaiah et al., 2007, J. Biol. Chem., 282: 10104-10116). Osteoclasts were generated in vitro using mouse bone marrow (BM) cells as described (Chellaiah et al., 2000, J. Cell Biol., 148: 665-678; Chellaiah et al., 2007, J. Biol. Chem., 282: 10104.10116). Osteoclasts differentiated from RAW 264.7 cells were also used to corroborate a few of the observations made with osteoclasts derived from mouse BM cells. Osteoclasts from RAW 264.7 cells were generated as described previously (Gupta et al., 2003, J Bone Miner Res 18: 669-685). Conditions were established that offer >90% population of mature multinucleated osteoclasts from both mouse bone marrow and RAW cells. […]
Cell migration (phagokinesis and transwell migration) assays were done as described previously (Chellaiah et al., 2000, J. Cell Biol., 148: 665-678). […] Migrated cells at the bottom of the wells were counted in 3-4 independent fields/transwell filter. […] In phagokinesis assay, cell motility was assessed by measuring the areas free of gold particles. By using a grided reticule (Boyce Scientific. Inc.) in the eyepiece of a Nikon microscope, areas free of gold particles were measured using a 10× objective. […]

endogenous LPL = assay: Phosphorylation of endogenous LPL in osteoclasts derived from RAW cells; assay type: cell-based; details: bone particles and TNF-α
Description: (§2) C57/BL6 mice were used for osteoclast preparation as described previously (Chellaiah et al., 2000, J. Cell Biol., 148: 665.678; Chellaiah et al., 2007, J. Biol. Chem., 282: 10104-10116). Osteoclasts were generated in vitro using mouse bone marrow (BM) cells as described (Chellaiah et al., 2000, J. Cell Biol., 148: 665-678; Chellaiah et al., 2007, J. Biol. Chem., 282: 10104.10116). Osteoclasts differentiated from RAW 264.7 cells were also used to corroborate a few of the observations made with osteoclasts derived from mouse BM cells. Osteoclasts from RAW 264.7 cells were generated as described previously (Gupta et al., 2003, J Bone Miner Res 18: 669-685). Conditions were established that offer >90% population of mature multinucleated osteoclasts from both mouse bone marrow and RAW cells.
After flushing the marrow cells for osteoclast differentiation, long mouse bones (free of cells inside and muscles outside) were washed extensively with PBS and kept in ethanol until use. Long bones were air-dried in the hood and homogenized by a mini blender. Bone particles were sieved, and bone particles 60-80 μm in size were used for experiments. The multinucleated osteoclasts were seen from day four onward from mouse BM or RAW cells. At this stage, osteoclasts were added with sterile native bone particles (100 μg/ml medium) for 3-4 hours or 12-14 hours in the presence of TNF-α (20 ng/ml). […]

integrin αv = assay: Localization of integrin αv in NSZs (immunostaining with LPL and integrin αv antibody); assay type: cell-based, mouse; details: 3, 6 and 10 hours
Description: as §1
Osteoclasts were fixed with 3% paraformaldehyde for 20 minutes and permeabilized with 0.1% Triton X-100 in PBS for 5 minutes. Subsequently, osteoclasts were stained with a primary (HA or integrin αv) and secondary antibody as described (Chellaiah et al., 2003, J Biol Chem 278: 29086-29097). Actin staining was done with rhodamine-phalloidin as described (Chellaiah et al., 2000, J. Biol. Chem., 275: 11993-12002; Chellaiah et al., 2000, J. Cell Biol., 148: 665-678). […]

[2] = test system: osteoclasts derived from RAW cells; assay: NSZs and sealing ring formation in osteoclasts derived from RAW cells; assay type: cell-based
Description: as §2
After cells were kept in the serum-free α-MEM medium for two hours, LPL peptides of interest were added to a final concentration of 100-150 nM to cells in serum-free media (Chellaiah et al, 2000, J. Biol. Chem., 275: 11993-12002). Osteoclasts transduced with peptides of interest and added with bone particles in the presence of TNF-α for 3-4 hours or 12-14 hours were used for lysate preparations. Cells plated on coverslips and treated with peptides were used for actin staining to detect podosomes. […]

Molecule: MARGAVADEE [Peptide P2, TAT-fused sNT-LPL peptide, Ser-5 and Ser-7 substituted to Alanine (A5A7)]
- formation of podosomes (osteoclasts): Neither the migration (FIG. 12A-FIG. 12C) nor the formation the podosomes (FIG. 12D) was affected

Molecule: MARGSVSDEE [Peptide P1, TAT-fused small molecular weight (10aa) amino-terminal LPL peptide, unsubstituted (S5S7)]
- migration of osteoclasts [1]: no effect
- pattern of podosome organization [1]: no effect
- phosphorylation of endogenous (cellular) LPL (endogenous LPL): significant decrease; also recorded: reduced
- localization of integrin αv in NSZs / colocalization with LPL (integrin αv): abrogated
- formation of podosomes (osteoclasts): Neither the migration (FIG. 12A-FIG. 12C) nor the formation the podosomes (FIG. 12D) was affected
- formation of NSZs [2]: significant decrease
- formation of sealing rings [2]: significant decrease

Molecule: SRSGMVEEAD [Peptide P5, TAT-fused scrambled sNT-LPL peptide, control, reference compound]
- formation of podosomes (osteoclasts): Neither the migration (FIG. 12A-FIG. 12C) nor the formation the podosomes (FIG. 12D) was affected

B1: FL-LPL: HA-TAT fused full-length L-plastin protein (70-75 kDa), purified from bacterial expression vector pTAT-HA (protein, UniProt P13796 1-627, looked up)
chain: MARGSVSDEEMMELREAFAKVDTDGNGYISFNELNDLFKAACLPLPGYRVREITENLMATGDLDQDGRISFDEFIKIFHGLKSTDVAKTFRKAINKKEGICAIGGTSEQSSVGTQHSYSEEEKYAFVNWINKALENDPDCRHVIPMNPNTNDLFNAVGDGIVLCKMINLSVPDTIDERTINKKKLTPFTIQENLNLALNSASAIGCHVVNIGAEDLKEGKPYLVLGLLWQVIKIGLFADIELSRNEALIALLREGESLEDLMKLSPEELLLRWANYHLENAGCNKIGNFSTDIKDSKAYYHLLEQVAPKGDEEGVPAVVIDMSGLREKDDIQRAECMLQQAERLGCRQFVTATDVVRGNPKLNLAFIANLFNRYPALHKPENQDIDWGALEGETREERTFRNWMNSLGVNPRVNHLYSDLSDALVIFQLYEKIKVPVDWNRVNKPPYPKLGGNMKKLENCNYAVELGKNQAKFSLVGIGGQDLNEGNRTLTLALIWQLMRRYTLNILEEIGGGQKVNDDIIVNWVNETLREAKKSSSISSFKDPKISTSLPVLDLIDAIQPGSINYDLLKTENLNDDEKLNNAKYAISMARKIGARVYALPEDLVEVNPKMVMTVFACLMGKGMKRV
modifications: full-length HA-TAT tag
notes: HA-TAT fused full-length L-plastin protein (70-75 kDa), purified from bacterial expression vector pTAT-HA
- actin modulation involved in podosome assembly/disassembly (osteoclasts): does not affect

B2: mutated FL-LPL: TAT-fused full-length L-plastin with Ser-5 and Ser-7 mutated to Ala-5 and Ala-7 (protein, UniProt P13796 1-627, looked up, variant S5A S7A)
chain: MARGAVADEEMMELREAFAKVDTDGNGYISFNELNDLFKAACLPLPGYRVREITENLMATGDLDQDGRISFDEFIKIFHGLKSTDVAKTFRKAINKKEGICAIGGTSEQSSVGTQHSYSEEEKYAFVNWINKALENDPDCRHVIPMNPNTNDLFNAVGDGIVLCKMINLSVPDTIDERTINKKKLTPFTIQENLNLALNSASAIGCHVVNIGAEDLKEGKPYLVLGLLWQVIKIGLFADIELSRNEALIALLREGESLEDLMKLSPEELLLRWANYHLENAGCNKIGNFSTDIKDSKAYYHLLEQVAPKGDEEGVPAVVIDMSGLREKDDIQRAECMLQQAERLGCRQFVTATDVVRGNPKLNLAFIANLFNRYPALHKPENQDIDWGALEGETREERTFRNWMNSLGVNPRVNHLYSDLSDALVIFQLYEKIKVPVDWNRVNKPPYPKLGGNMKKLENCNYAVELGKNQAKFSLVGIGGQDLNEGNRTLTLALIWQLMRRYTLNILEEIGGGQKVNDDIIVNWVNETLREAKKSSSISSFKDPKISTSLPVLDLIDAIQPGSINYDLLKTENLNDDEKLNNAKYAISMARKIGARVYALPEDLVEVNPKMVMTVFACLMGKGMKRV
modifications: full-length HA-TAT tag
- actin modulation involved in podosome assembly/disassembly (osteoclasts): does not affect
